Measurements published in US7253258B2, “Proline rich acidic protein and uses thereof” (National University of Singapore, priority 2003, dated 2007).
Several values for one entry are separate records, joined by “and”; a condition that tells them apart may be missing. Equal entries are not always repeated.

Key:
[1] = test system: PRAP expression in HT29 cells; assay: Real time RT-PCR of PRAP expression in HT29 cells treated with TSA, DAC or both; type: cell-based, human; conditions: HT29, 72 h, TSA (300 ng), DAC (1 μm); for PRAPcp-GAPDHcp: crossing point of PRAP normalized by GAPDH: untreated 12.63
Protocol: (§1) Sigma), trichostatin A (TSA, 300 nM; Sigma) or a combination of both drugs for 72 hours. For the combined treatment, cells were treated with 1 μM DAC for 24 h followed by the addition of 300 nM TSA for another 48 h. Total RNA was extracted using the […] (Qiagen). The experiment was performed in duplicates and the average result calculated. Primers for real-time PCR were designed using the LightCycler Probe Design Software, version 1.0 (Roche, France). […] Real-time PCR was performed on the LightCycler (Roche, France) using the LightCycler-RNA amplification Kit SYBR Green I (Roche, France). The specificity of the amplification was assessed by electrophoretic separation of the amplified products and melting curve analysis. […] The efficiencies of both amplifications were calculated according to the slope of the standard curves. Relative PRAP expression was quantified after normalisation with GAPDH.

[2] = test system: PRAP expression in HCT116 cells; assay: Real time RT-PCR of PRAP expression in HCT116 cells treated with TSA, DAC or both; type: cell-based, human; conditions: HCT116, 72 h, TSA (300 ng), DAC (1 μm); for PRAPcp-GAPDHcp: crossing point of PRAP normalized by GAPDH: untreated 13.97
Protocol: as §1

[3] = test system: PRAP gene expression in HT29 cells; assay: Northern blot of PRAP gene expression in butyrate-treated HT29 cells; type: cell-based, human; conditions: HT29, 5 mM butyrate
Protocol: The HT29, HCT116, HepG2 and HeLa cell lines were purchased from American Type Culture Collection (Manassas, Va.). HT29 and HCT116 cells were cultured in McCoy's 5A (Sigma Chemical Co., St. Louis, Mo.), HepG2 in DMEM and HeLa in RPMI, all supplemented with 10% fetal bovine serum (Life Technologies, Inc., Gaithersburg, Md.), at 37° C. in a 5% CO2 humidified atmosphere. Cells were treated with 5 mM sodium butyrate (final concentration in media; Life Technologies, Inc) or vehicle. Total RNA was prepared from the cells at the respective time points from three separate flasks.
In a separate experiment, total RNA from tissues and cell lines was prepared using the guanidinium thiocyanate method as previously described (MacDonald et al., 1987). 15 μg of RNA was separated by formaldehyde/agarose gel electrophoresis, transferred to nylon membrane (Qiabrane, Qiagen, Hilden, Germany), cross-linked (Stratalinker, Stratagene, La Jolla, Calif.), and hybridised to cDNA probes, as previously described (Wang et al., 1999). […] Relative mRNA levels were quantified by Typhoon phospho-imager (Amersham Bioscience, UK) and normalised against 18S levels. Normal/Tumour (N/T) ratios were obtained by dividing the normalised relative densitometric units of the normal mucosa by tumour.

[4] = test system: PRAP expression in HT29 cells; assay: Western blot of PRAP expression in HT29 cells at different butyrate concentrations; type: cell-based, human
Description: Cells or tissues were extracted with RIPA buffer (1×PBS, 1% Nonidet P-40, 0.5% sodium deoxychelate and 0.1% SDS. Protease inhibitors: PMSF, aprotinin, pepstatin A and leupeptin were freshly added to the RIPA buffer at the point of usage). […] The secondary antibody was either HRP-conjugated anti-rabbit IgG (BioRad, Hercules, Calif., 1:10,000) or HRP-conjugated anti-mouse antibody (Santa Cruz Biotechnology, Santa Cruz, Calif., 1:20,000). The proteins were visualized using the SuperSignal® West Dura Extended (Pierce) chemiluminescent substrate and exposed to an autoradiograph film.

HeLa cells [5] = assay: Cell numbers after transfection (overexpression) in HeLa cells, haemocytometer count after Trypan Blue; type: cell-based, human; conditions: 72 h after transfection
Protocol: The cDNA fragment was cloned into pcDNA 3.1. All plasmids were sequenced to confirm identity and exclude mutations. The plasmids were transfected into HepG2 and HeLa cells using Lipofectamine (Invitrogen), according to manufacturer's recommendations. Each experiment was performed in quadruplicates and repeated three times. After 72 h, the cells were harvested and counted by a haemocytometer after Trypan Blue staining. Whole cell extracts were prepared for Western blot analysis as described.

HeLa cells [6] = test system: HeLa cells
Protocol: (§2) Cells were subjected to selection in 1200 μg/ml G418 and the number of colonies scored manually at the end of 3 weeks.

HT29 cells = conditions: HT29 stable clones, MTT, p<0.01
Protocol: as §2
The colorimetric MTT (3-(4,5-dimethylthiazol-2yl)-2,5-diphenyl-tetrazolium bromide; Sigma) assay was used as a surrogate measure of cell number at various time points. The experiment was performed in replicates of six and repeated twice.

Molecule	Fold of increase of PRAP expression relative to untreated HT29 [1]	PRAPcp-GAPDHcp: crossing point of PRAP normalized by GAPDH [1]	PRAPcp-GAPDHcp: crossing point of PRAP normalized by GAPDH [2]	Reduction in cell numbers compared to vector-transfected controls (HeLa cells [5])	further results
Nc1ncn([C@H]2C[C@H](O)[C@@H](CO)O2)c(=O)n1 [DAC, 5-aza-2′ deoxycytidine]	8.5 fold	9.37	13.8	–	–
CC(/C=C/C(=O)NO)=C\[C@@H](C)C(=O)c1ccc(N(C)C)cc1 [TSA, trichostatin A]	8.4 fold	9.38	11.6	–	Fold of increase of PRAP expression relative to untreated HCT116 [2]: 5.2 fold and 5.17 fold
CCCC(=O)[O-].[Na+] [butyrate, sodium butyrate]	–	–	–	–	PRAP gene expression versus control non-treated cells ([3]; 6 days after treatment): 29 fold; Increase of PRAP gene expression ([3]; within 24 h): 20 fold; Butyrate concentration giving maximal PRAP expression [4]: 2 to 5 mM
Proline-rich acidic protein [PRAP]	–	–	–	55%	Size of colonies compared to controls (HeLa cells [6]; 3 weeks selection in 1200 μg/ml G418): reduction in the size; Reduction in the number of colonies (HeLa cells [6]; 3 weeks selection in 1200 μg/ml G418, versus vector): 50%; Rate of cell growth of stably transfected clones versus vector controls (HT29 cells): significantly lower rate of cell growth
PRAP/-SP: truncated PRAP without signal peptide, amino acid 21 to 151 (protein) VPAPKVPIKMQVKHWPSEQDPEKAWGARVVEPPEKDDQLVVLFPVQKPKLLTTEEKPRGQGRGPILPGTKAWMETEDTLGRVLSPEPDHDSLYHPPPEEDQGEERPRLWVMPNHQVLLGPEEDQDHIYHPQ	–	–	–	did not result in a reduction in cell numbers	–
